Laboratory results from patent US9556179B2 (BRISTOL-MYERS SQUIBB COMPANY, priority 2012, dated 2017).
pIC50: −log10 of the molar value.

Legend:
[1] = biological target: CK1ε (Homo sapiens (Human), UniProt P49674); experiment: CK1ε kinase assay (Caliper LABCHIP electrophoretic separation of fluoresceinated peptide substrate and product); format: biochemical; details: 200 pM enzyme, 50 μM ATP, 22 hours at room temperature
Procedure: (§1) CK1ε and CK1δ Kinase Assays
(§2) The kinase assay was performed in V-bottom 384-well plates. […] The reaction was incubated at room temperature for 22 hours and terminated by adding 45 μl of 35 mM EDTA to each sample. The reaction mixture was analyzed on the Caliper LABCHIP®3000 (Caliper, Hopkinton, Mass.) by electrophoretic separation of the unphosphorylated substrate and phosphorylated product. […] Compounds were dissolved at 10 mM in dimethylsulfoxide (DMSO) and evaluated at eleven concentrations. IC50 values were derived by non-linear regression analysis.

[2] = biological target: CK1δ (Homo sapiens (Human), UniProt P48730); experiment: CK1δ kinase assay (Caliper LABCHIP electrophoretic separation of fluoresceinated peptide substrate and product); format: biochemical; details: 200 pM enzyme, 50 μM ATP, 22 hours at room temperature
Sequence of CK1δ (P48730 whole entry): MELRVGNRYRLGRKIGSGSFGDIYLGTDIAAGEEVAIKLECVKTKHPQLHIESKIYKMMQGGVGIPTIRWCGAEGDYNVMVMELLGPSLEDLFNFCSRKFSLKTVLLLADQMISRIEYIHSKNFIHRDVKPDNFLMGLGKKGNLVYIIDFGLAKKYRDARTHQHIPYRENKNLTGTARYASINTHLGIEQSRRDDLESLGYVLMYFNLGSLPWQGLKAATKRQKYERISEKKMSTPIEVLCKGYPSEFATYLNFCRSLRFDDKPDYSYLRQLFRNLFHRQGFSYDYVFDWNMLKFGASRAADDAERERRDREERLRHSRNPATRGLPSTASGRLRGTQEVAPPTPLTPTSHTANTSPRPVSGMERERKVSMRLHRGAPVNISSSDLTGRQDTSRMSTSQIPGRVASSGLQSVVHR
Procedure: as §1, §2

Sequence of CK1ε (P49674 whole entry): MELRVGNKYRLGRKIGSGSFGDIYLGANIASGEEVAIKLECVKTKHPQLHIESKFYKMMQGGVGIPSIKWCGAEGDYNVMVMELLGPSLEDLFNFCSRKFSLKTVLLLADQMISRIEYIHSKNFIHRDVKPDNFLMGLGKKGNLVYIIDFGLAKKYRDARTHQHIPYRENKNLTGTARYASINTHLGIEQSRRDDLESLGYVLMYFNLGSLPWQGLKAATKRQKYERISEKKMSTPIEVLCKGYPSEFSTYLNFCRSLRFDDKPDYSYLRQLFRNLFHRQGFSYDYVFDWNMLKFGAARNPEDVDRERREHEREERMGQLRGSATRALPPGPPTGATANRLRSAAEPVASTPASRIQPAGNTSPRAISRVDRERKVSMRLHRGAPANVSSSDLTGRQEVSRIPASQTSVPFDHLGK

Structure (SMILES)	pIC50 [1]	pIC50 [2]
CN1CCC(n2cnc(-c3ccc(F)cc3)c2-c2ccc3nc(NC(=O)c4ccncc4)cn3n2)CC1 [Compound 2]	8.61	8.60
O=C(Nc1cn2nc(-c3c(-c4ccc(F)cc4)ncn3C3CCN(Cc4ccon4)CC3)ccc2n1)c1ccncc1 [Compound 3, N-(6-(4-(4-fluorophenyl)-1-(1-(isoxazol-3-ylmethyl)piperidin-4-yl)-1H-imidazol-5-yl)imidazo[1,2-b]pyridazin-2-yl)isonicotinamide]	9.53	9.51
O=C(Nc1cn2nc(-c3c(-c4ccc(F)cc4)ncn3C3CCN(CCC(F)(F)F)CC3)ccc2n1)c1ccncc1 [Compound 4, N-(6-(4-(4-fluorophenyl)-1-(1-(3,3,3-trifluoropropyl)piperidin-4-yl)-1H-imidazol-5-yl)imidazo[1,2-b]pyridazin-2-yl)isonicotinamide]	8.65	9.52
O=C(Nc1cn2nc(-c3c(-c4ccc(F)cc4)ncn3C3CCN(C(=O)c4ccon4)CC3)ccc2n1)c1ccncc1 [Compound 5, N-(6-(4-(4-fluorophenyl)-1-(1-(isoxazole-3-carbonyl)piperidin-4-yl)-1H-imidazol-5-yl)imidazo[1,2-b]pyridazin-2-yl)isonicotinamide]	8.85	9.42
O=C(Nc1cn2nc(-c3c(-c4ccc(F)cc4)ncn3C3CCN(C(=O)CC(F)(F)F)CC3)ccc2n1)c1ccncc1 [Compound 6, N-(6-(4-(4-fluorophenyl)-1-(1-(3,3,3-trifluoropropanoyl)piperidin-4-yl)-1H-imidazol-5-yl)imidazo[1,2-b]pyridazin-2-yl)isonicotinamide]	8.93	9.58
O=C(Nc1cn2nc(-c3c(-c4ccc(F)cc4)ncn3C3CCN(Cc4ccc(F)cc4)CC3)ccc2n1)c1ccnc(F)c1 [Compound 15, 2-fluoro-N-(6-(1-(1-(4-fluorobenzyI)piperidin-4-yl)-4-(4-fluorophenyl)-1H-imidazol-5-yl)imidazo[1,2-b]pyridazin-2-yl)isonicotinamide]	7.85	9.67
O=C(Nc1cn2nc(-c3c(-c4ccc(F)cc4)ncn3C3CCN(Cc4ccncc4)CC3)ccc2n1)c1ccnc(F)c1 [Compound 16, 2-fluoro-N-(6-(4-(4-fluorophenyl)-1-(1-(pyridin-4-ylmethyl)piperidin-4-yl)-1H-imidazol-5-yl)imidazo[1,2-b]pyridazin-2-yl)isonicotinamide]	8.51	9.53
Cc1nn(C)cc1CN1CCC(n2cnc(-c3ccc(F)cc3)c2-c2ccc3nc(NC(=O)c4ccnc(F)c4)cn3n2)CC1 [Compound 21]	8.26	9.77
O=C(Nc1cn2nc(-c3c(-c4ccc(F)cc4)nc4ccccn34)ccc2n1)C1CC1 [Compound 185, N-(6-(2-(4-fluorophenyl)imidazo[1,2-a]pyridin-3-yl)imidazo[1,2-b]pyridazin-2-yl)cyclopropanecarboxamide]		8.42
O=C(Nc1cn2nc(-c3c(-c4ccc(Cl)cc4)ncn3CC(F)F)ccc2n1)c1ccnc(F)c1 [Compound 244, N-(6-(4-(4-chlorophenyl)-1-(2,2-difluoroethyl)-1H-imidazol-5-yl)imidazo[1,2-b]pyridazin-2-yl)-2-fluoroisonicotinamide]		9.69
Cc1nc(-c2ccc(F)cc2)c(-c2ccc3nc(NC(=O)C(=O)c4ccccc4)cn3n2)n1C [Compound 317, N-(6-(4-(4-fluorophenyl)-1,2-dimethyl-1H-imidazol-5-yl)imidazo[1,2-b]pyridazin-2-yl)-2-oxo-2-phenylacetamide]		8.92

Next, values leading:

pIC50 [1]	pIC50 [2]	Structure (SMILES)
9.17	9.04	O=C(Nc1cn2nc(-c3c(-c4ccc(F)cc4)ncn3C3CCNCC3)ccc2n1)c1ccnc(F)c1 [Compound 9, 2-fluoro-N-(6-(4-(4-fluorophenyl)-1-(piperidin-4-yl)-1H-imidazol-5-yl)imidazo[1,2-b]pyridazin-2-yl)isonicotinamide]
8.64	9.07	O=C(Nc1cn2nc(-c3c(-c4ccc(F)cc4)ncn3C3CCN(CCC(F)(F)F)CC3)ccc2n1)c1ccnc(F)c1 [Compound 10, 2-fluoro-N-(6-(4-(4-fluorophenyl)-1-(1-(3,3,3-trifluoropropyl)piperidin-4-yl)-1H-imidazol-5-yl)imidazo[1,2-b]pyridazin-2-yl)isonicotinamide]
9.18	9.07	CN1CCC(n2cnc(-c3ccc(F)cc3)c2-c2ccc3nc(NC(=O)c4ccnc(F)c4)cn3n2)CC1 [Compound 11]
9.55	9.07	O=C(Nc1cn2nc(-c3c(-c4ccc(F)cc4)ncn3C3CCN(Cc4ccon4)CC3)ccc2n1)c1ccnc(F)c1 [Compound 12]
9.21	9.67	O=C(Nc1cn2nc(-c3c(-c4ccc(F)cc4)ncn3C3CCN(CCO)CC3)ccc2n1)c1ccnc(F)c1 [Compound 13, 2-fluoro-N-(6-(4-(4-fluorophenyl)-1-(1-(2-hydroxyethyl)piperidin-4-yl)-1H-imidazol-5-yl)imidazo[1,2-b]pyridazin-2-yl)isonicotinamide]
8.41	9.20	O=C(Nc1cn2nc(-c3c(-c4ccc(F)cc4)ncn3C3CCN(C(=O)c4cnon4)CC3)ccc2n1)c1ccnc(F)c1 [Compound 14, N-(6-(1-(1-(1,2,5-oxadiazole-3-carbonyl)piperidin-4-yl)-4-(4-fluorophenyl)-1H-imidazol-5-yl)imidazo[1,2-b]pyridazin-2-yl)-2-fuoroisonicotinamide]
7.66	8.67	O=C(Nc1cn2nc(-c3c(-c4ccc(F)cc4)ncn3C3CCN(Cc4cocn4)CC3)ccc2n1)c1ccnc(F)c1 [Compound 17, 2-fluoro-N-(6-(4-(4-fluorophenyl)-1-(1-(oxazol-4-ylmethyl)piperidin-4-yl)-1H-imidazol-5-yl)imidazo[1,2-b]pyridazin-2-yl)isonicotinamide]
9.22	9.59	O=C(Nc1cn2nc(-c3c(-c4ccc(F)cc4)ncn3C3CCN(Cc4ncc[nH]4)CC3)ccc2n1)c1ccnc(F)c1 [Compound 18, N-(6-(1-(1-((1H-imidazol-2-yl)methyl)piperidin-4-yl)-4-(4-fluorophenyl)-1H-imidazol-5-yl)imidazo[1,2-b]pyridazin-2-yl)-2-fluoroisonicotinamide]
8.75	9.55	O=C(Nc1cn2nc(-c3c(-c4ccc(F)cc4)ncn3C3CCN(Cc4cc[nH]n4)CC3)ccc2n1)c1ccnc(F)c1 [Compound 20, N-(6-(1-(1-((1H-pyrazol-3-yl)methyl)piperidin-4-yl)-4-(4-fluorophenyl)-1H-imidazol-5-yl)imidazo[1,2-b]pyridazin-2-yl)-2-fluoroisonicotinamide]
8.89	10.00	O=C(Nc1cn2nc(-c3c(-c4ccc(F)cc4)ncn3C3CCN(Cc4c[nH]cn4)CC3)ccc2n1)c1ccnc(F)c1 [Compound 22]
	9.71	O=C(Nc1cn2nc(-c3c(-c4ccc(F)cc4)ncn3C3CCN(C(=O)C4CCC4)CC3)ccc2n1)c1ccnc(F)c1 [Compound 68, N-(6-(1-(1-(cyclobutanecarbonyl)piperidin-4-yl)-4-(4-fluorophenyl)-1H-imidazol-5-yl)imidazo[1,2-b]pyridazin-2-yl)-2-fluoroisonicotinamide]
